The results in this text go back to PubChem BioAssay (NCI).

The structures appear in SMILES notation. Where “and” joins values, the source holds several entries; their conditions need not be identical. Equal entries are not always repeated.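 Dose response: 5 concentrations. Exposure: 48 h. Format: 96-well plates. Endpoint: linear interpolation; highest concentration if not reached. At the GI50, growth is halved. TGI: total growth inhibition.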

Test systems include A498 renal; MDA-MB-231 breast; MDA-MB-435; MOLT-4 leukemia; NCI/ADR-RES ovarian; OVCAR-8 ovarian; SK-MEL-2 melanoma; SK-MEL-28 melanoma; SW-620 colon; EKVX NSCLC.
Holding throughout (assay): growth of human tumour cells (NCI), 48 h

On to `COc1ccccc1-c1ccc2nc(NC(=O)Nc3cc(C(F)(F)F)cc(C(F)(F)F)c3)sc2c1`, for which the GI50 in the test on A498 renal is 1.64 µM; in the test with MDA-MB-231 breast it was 1.95 µM; with MDA-MB-435 it was 2.27 µM; in the test on MOLT-4 leukemia it was 1.58 µM; with NCI/ADR-RES ovarian it was 2.37 µM; with OVCAR-8 ovarian it was 3.04 µM. The GI50 in the test with SK-MEL-2 melanoma is 2.09 µM; with SK-MEL-28 melanoma, 2.51 µM; with SW-620 colon, 3.04 µM. The TGI was 3.9 µM with A498 renal; 4.24 µM in the test on MDA-MB-231 breast; 6.73 µM in the test with MDA-MB-435; 7.24 µM with MOLT-4 leukemia; 7.19 µM in the test on NCI/ADR-RES ovarian; 11.2 µM in the test on OVCAR-8 ovarian. For the same compound, the TGI in the test on SK-MEL-2 melanoma was found to be 6.09 µM; in the test with SK-MEL-28 melanoma, 9.1 µM; in the test on SW-620 colon it was 11.2 µM.
Consider `O=C1OCC2=C1C(c1cccc(C(F)(F)F)c1)c1cc3c(cc1N2CCO)OCO3` (stereo unspecified), for which the GI50 is 1.08 µM in the test on A498 renal; 1.75 µM in the test with EKVX NSCLC; 1.77 µM in the test on MDA-MB-231 breast; 0.161 µM with MDA-MB-435; 1.02 µM in the test on MOLT-4 leukemia; 1.34 µM in the test on NCI/ADR-RES ovarian. Also, the GI50 in the test on OVCAR-8 ovarian was 2.51 µM; in the test with SK-MEL-2 melanoma, 1.43 µM; with SK-MEL-28 melanoma, 4.54 µM; with SW-620 colon, 0.84 µM. In addition, the TGI in the test on A498 renal is 10.9 µM; in the test with EKVX NSCLC, greater than 50 µM; in the test with MDA-MB-231 breast, greater than 50 µM; in the test on MDA-MB-435, 0.641 µM; with MOLT-4 leukemia, greater than 50 µM; in the test on NCI/ADR-RES ovarian, greater than 50 µM. In addition, the TGI in the test on OVCAR-8 ovarian, with SK-MEL-2 melanoma, in the test with SK-MEL-28 melanoma and in the test on SW-620 colon was greater than 50 µM in each case.
On to `Clc1ccccc1-c1nc(-c2ccncc2)no1`, for which the TGI with A498 renal, in the test with EKVX NSCLC, with MDA-MB-231 breast, with MDA-MB-435, in the test with MOLT-4 leukemia and in the test on NCI/ADR-RES ovarian was greater than 100 µM throughout. Moreover, the TGI in the test on OVCAR-8 ovarian, with SK-MEL-2 melanoma, in the test with SK-MEL-28 melanoma and with SW-620 colon was greater than 100 µM throughout.
Turning to `Nc1c(S(=O)(=O)O)cc(Nc2cccc(S(N)(=O)=O)c2)c2c1C(=O)c1ccccc1C2=O`, the TGI was greater than 100 µM with A498 renal; greater than 100 µM in the test with EKVX NSCLC; greater than 100 µM with MDA-MB-231 breast; 32.6 µM in the test on MDA-MB-435; greater than 100 µM with MOLT-4 leukemia; greater than 100 µM in the test with NCI/ADR-RES ovarian. In addition, the TGI in the test on OVCAR-8 ovarian, with SK-MEL-2 melanoma, with SK-MEL-28 melanoma and in the test with SW-620 colon was greater than 100 µM throughout.
Turning to `Cc1cc(S(N)(=O)=O)c(S/C(=N\Nc2ccc([N+](=O)[O-])cc2)c2ccc(O)cc2)cc1Cl`, the GI50 is 7.56 µM with A498 renal; 6.82 µM in the test with EKVX NSCLC; 1.78 µM in the test with MDA-MB-231 breast; 1.8 µM in the test with MDA-MB-435; 2.97 µM in the test on MOLT-4 leukemia; 2.64 µM in the test with NCI/ADR-RES ovarian. Further, the GI50 with OVCAR-8 ovarian was 5.72 µM; in the test on SK-MEL-2 melanoma it was 3.9 µM; in the test with SK-MEL-28 melanoma, 2.62 µM; in the test on SW-620 colon it was 3.54 µM. Also, the TGI was 20.5 µM with A498 renal; 22.6 µM in the test with EKVX NSCLC; 4.67 µM in the test with MDA-MB-231 breast; 3.44 µM in the test on MDA-MB-435; greater than 100 µM with MOLT-4 leukemia; 8.57 µM in the test with NCI/ADR-RES ovarian. Further, the TGI in the test on OVCAR-8 ovarian was found to be 21.7 µM; in the test with SK-MEL-2 melanoma it was 53.3 µM; with SK-MEL-28 melanoma it was 5.73 µM; with SW-620 colon it was 11.6 µM.
Turning to `CNS(=O)(=O)c1ccccc1C(=N)c1ccccc1`, the TGI in the test on A498 renal, in the test with EKVX NSCLC, in the test on MDA-MB-231 breast, in the test on MDA-MB-435, with MOLT-4 leukemia and in the test with NCI/ADR-RES ovarian was greater than 100 µM each time. The TGI with OVCAR-8 ovarian, in the test on SK-MEL-2 melanoma, in the test with SK-MEL-28 melanoma and in the test with SW-620 colon was greater than 100 µM throughout.
For the compound `CC(C)[C@](O)(C(=O)OCC1=CC[N+]2([O-])CC[C@@H](O)[C@@H]12)[C@H](C)O` (stereo partly specified), the TGI with A498 renal, with EKVX NSCLC, in the test on MDA-MB-231 breast, in the test with MDA-MB-435, in the test with MOLT-4 leukemia and with NCI/ADR-RES ovarian was greater than 10000 µM each time. Also, the TGI in the test on OVCAR-8 ovarian is greater than 7940 µM; in the test on SK-MEL-2 melanoma, greater than 10000 µM; in the test on SK-MEL-28 melanoma, greater than 10000 µM; in the test on SW-620 colon it was greater than 10000 µM.
As for `[C-]#[O+].[C-]#[O+].[Ir].[O-]c1ccc2ccccc2c1N=Nc1ccccc1`, the TGI was 33.3 µM in the test with A498 renal; 49.1 µM in the test on EKVX NSCLC; 40.7 µM in the test with MDA-MB-231 breast; 54.4 µM in the test with MDA-MB-435; 50.2 µM in the test with MOLT-4 leukemia; 51.8 µM in the test on NCI/ADR-RES ovarian. The TGI stood at 38.7 µM in the test on OVCAR-8 ovarian, 49.1 µM with SK-MEL-2 melanoma, 24.7 µM with SK-MEL-28 melanoma and 5.37 µM in the test on SW-620 colon. The GI50 in the test with EKVX NSCLC was 19.4 µM; in the test on OVCAR-8 ovarian it was 13.6 µM.
With `CCN1CCC2(CC1)NC(=O)c1c(c3ccc(Cl)c(Cl)c3n1C)C2C#N` (stereo unspecified), the GI50 in the test with A498 renal was 1.34 µM; in the test with EKVX NSCLC, 3.4 µM; in the test with MDA-MB-231 breast, 1.97 µM; in the test on MDA-MB-435, 1.93 µM; with MOLT-4 leukemia, 2.43 µM; in the test on NCI/ADR-RES ovarian, 3.6 µM. Further, the GI50 in the test with SK-MEL-2 melanoma was 2.02 µM; in the test on SK-MEL-28 melanoma, 1.65 µM; in the test on SW-620 colon, 1.94 µM. Besides, the TGI came to 3.32 µM with A498 renal; 17.8 µM in the test on EKVX NSCLC; 4.43 µM in the test with MDA-MB-231 breast; 3.77 µM in the test with MDA-MB-435; 8.66 µM in the test on MOLT-4 leukemia; 13.6 µM in the test with NCI/ADR-RES ovarian. Further, the TGI is 4.42 µM in the test on SK-MEL-2 melanoma, 3.07 µM in the test with SK-MEL-28 melanoma and 3.77 µM in the test with SW-620 colon.
Consider `COc1cc(OC)cc(-c2ccc(-c3ccc(C(=N)N)s3)s2)c1`, for which the GI50 in the test with A498 renal was 1.46 µM; with MDA-MB-231 breast it was 0.8 µM; with MDA-MB-435, 0.271 µM; in the test on MOLT-4 leukemia, 0.396 µM and 0.23 µM; in the test on NCI/ADR-RES ovarian, 1.75 µM; with OVCAR-8 ovarian, 1.66 µM. Also, the GI50 in the test with SK-MEL-2 melanoma is 1.62 µM; in the test with SK-MEL-28 melanoma, 1.52 µM; in the test with SW-620 colon it was 0.291 µM. For the same compound, the TGI in the test on A498 renal was 3.05 µM; in the test with MDA-MB-231 breast, 2.62 µM; in the test on MDA-MB-435, 0.991 µM; with MOLT-4 leukemia it was 1.12 µM and 0.486 µM; with NCI/ADR-RES ovarian it was 3.58 µM; with OVCAR-8 ovarian it was 4.16 µM. In addition, the TGI in the test with SK-MEL-2 melanoma was 3.14 µM; in the test on SK-MEL-28 melanoma, 3.51 µM; with SW-620 colon it was 1.02 µM.
